# Results published in US20220315572A1, “SUBSTITUTED CYANOPYRROLIDINES WITH ACTIVITY AS USP30 INHIBITORS” (MISSION THERAPEUTICS LIMITED, priority 2019, published 2022).
# Assays:
# Hepatocyte Cl mouse = type: in vitro ADME; settings: mouse hepatocytes
# Method: Hep Cl mouse: in vitro hepatocyte clearance in mouse cells.
# Clu: in vitro clearance. Clu as defined here is the scaled clearance, in turn calculated from the intrinsic clearance. The intrinsic clearance is the predicted clearance due to hepatic metabolic reactions, determined from incubation of a compound in a hepatocyte preparation.
# UUO injured kidneys = test: Unilateral ureteral obstructive kidney disease model (UUO); type: in vivo, C57BL/6 mice; settings: 10 days
# Source text: (f) The unilateral ureteral obstructive kidney disease model (UUO). [Chevalier et al, 2009, Kidney Int 75(11): 1145-1152] UUO causes renal injury characterised by tubular cell injury, interstitial inflammation and fibrosis. It serves as a model of irreversible post-renal acute kidney injury (AKI). Experimental UUO has illustrated the molecular mechanisms of apoptosis, inflammation and fibrosis, all of which are key processes in renal injury, regardless of the primary insult. Consequently, the UUO model provides investigators information beyond obstruction. Example 1 was assessed in the UUO model to determine the ability of the compound to attenuate progressive tubulointerstitial fibrosis and chronic kidney disease (CKD). On day 1 of the study, adult C57BL/6 mice were dosed by oral gavage according to one of the following dosing regimens; Vehicle or 5 mg/kg Example 1 BID. Two hours post dosing on day 1 study mice underwent surgery to ligate the left ureter at two points. Successful UUO surgery was later confirmed by observation of dilation of renal pelvis due to hydronephrosis. The animals were dosed according to their prescribed regimen for 10 days at which point kidneys were harvested, or histopathology assessment and for protein/RNA assessment. […]
# [1] = system: Eurofins CEREP SafetyScreen44 panel; test: Eurofins CEREP SafetyScreen44 panel; type: binding; settings: single concentration of 10 μM, all targets in the panel
# Source text: Aside from selectivity over other DUB enzymes, it is important for a drug to have low affinity for other targets, and pharmacological profiling may be performed against panels of targets to assess the potential for, and to minimise, potential off-target effects. Examples of targets for which the compounds of the present invention may be screened against are those of the industry standard Eurofins-Cerep SafetyScreen44 panel, which includes 44 targets as a representative selection of GPCR receptors, transporters, ion channels, nuclear receptors, and kinase and non-kinase enzymes. Preferably, compounds of the invention have insignificant affinity against targets of this screening panel. Further examples of targets for which the compounds of the present invention may be screened against are kinases of the Thermo Fisher SelectScreen kinase profiling panel, which includes 39 targets as a representative selection of kinase enzymes. Preferably, compounds of the invention have insignificant affinity against targets of this screening panel. Additionally, examples of a particular enzyme class for which the compounds of the present invention may be screened against are the cathepsins (e.g. cathepsin A, B, C, H, K, L, S, V and Z). Preferably, compounds of the invention have good selectivity for USP30 over one or more of these enzymes. […]
# TOM20 ubiquitylation = test: TOM20-ubiquitylation assay; type: cell-based, Human; settings: antimycin A/oligomycin mitophagy trigger; n = 5, (0.015-0.075) printed below
# Source text: Human cell lines can be challenged with mitochondrial depolarizing agents (ionophores (eg. CCCP, valinomycin), mitochondrial complex inhibitors (oligomycin, antimycin A)) to induce ubiquitylation of TOM20, which is then further promoted in the presence of USP30 inhibitors. TOM20 ubiquitylation is subsequently assessed through western blotting of the cell lysates, with TOM20 ubiquitylation adduct detection possible due to an 8 kDa molecule weight increase for each molecule of ubiquitin added, resulting in laddering of a TOM20 immunoreactive band. TOM20-ubiquitylation levels can be quantified using chemiluminescence densitometry of laddered immunoreactive bands.
# [2] = Plasma free fraction, equilibrium dialysis; type: in vitro ADME; settings: mouse plasma; read-out: Binding Mouse Plasma fu, p
# Source text: Plasma fu,p: The free fraction of a compound in plasma preparation determined by in vitro equilibrium dialysis. It is understood that only unbound (free) compound is capable of engaging with the target.
# [3] = system: UCHL1, USP2, USP4, USP8, USP10, USP12/UAF1, USP15, USP16, USP21, USP22, USP25, USP28, USP35, USP36, USP46/UAF1; test: DUB biochemical IC50 assays, off-target panel; settings: bound over all 15 DUBs listed
# Mouse plasma stability = type: in vitro ADME; settings: read-out: Stability Mouse plasma t1/2
# Source text: Other parameters that may be measured using standard assays that are indicative of a compound's exposure profile include, for example plasma stability (half-life measurement), blood AUC, Cmax, Cmin and Tmax values.
# Turbidimetric solubility = type: physicochemical; settings: aqueous buffer, kinetic from dmso stock
# Source text: Turbidimetric solubility: Test compound solution prepared in DMSO diluted into aqueous buffer.
# Turbidimetry is used as the end-point by measuring absorbance at 620 nm.
compound,measurement,setting,value
"C[C@@H]1C[C@@H](NC(=O)c2nnc(-c3cccc(C#N)c3)o2)CN1C#N [Example 1, N-((3R,5R)-1-Cyano-5-methylpyrrolidin-3-yl)-5-(3-cyanophenyl)-1,3,4-oxadiazole-2-carboxamide]",Hepatocyte Cl mouse scaled Clu,Hepatocyte Cl mouse,45 mL/min/kg
same,α-SMA levels in UUO injured kidneys,"UUO injured kidneys; 5 mg/kg oral BID, compared to vehicle treated controls",statistically reduced α-SMA levels
same,"collagen deposition, picrosirius red staining in ligated kidneys",UUO injured kidneys; 5 mg/kg p.o. BID,statistically reduced collagen deposition
same,inhibition of binding or enzyme activity,[1],less than 25%
same,TOM20-Ub 1.5-fold gain EC1.5x (μM),TOM20 ubiquitylation,0.035 (n = 5) μM
same,fraction unbound,[2],0.54
same,IC50,[3],≥ 5.8 µM
same,half-life,Mouse plasma stability,> 33.3 h
same,solubility,Turbidimetric solubility,65 µM
